Source: patent publication US11534457B2, “Use of dextran sulfate” (priority 2017, dated 2022)

System: severe traumatic brain injury (sTBI)
Experiment: sTBI in rats, brain gene expression arrays and pathway analysis (Example 9)
Format: in vivo, Male Wistar rats
Design: key to z score, canonical pathway Dendritic Cell Maturation / z score, canonical pathway Adrenomedullin Signaling pathway / z score, canonical pathway Endothelin-1 Signaling / effect on canonical pathway Adrenomedullin Signaling pathway / effect on canonical pathway Endothelin-1 Signaling / effect on canonical pathway Dendritic Cell Maturation / Ingenuity canonical pathway Adrenomedullin signaling pathway, z score / Ingenuity canonical pathway FLT3 Signaling in Hematopoietic Progenitor Cells, z score / Ingenuity canonical pathway Opioid Signaling Pathway, z score / Ingenuity canonical pathway VDR/RXR Activation, z score / Ingenuity canonical pathway Neuropathic Pain Signaling In Dorsal Horn Neurons, z score / Ingenuity canonical pathway STAT3 Pathway, z score / Ingenuity canonical pathway IL-1 Signaling, z score / Ingenuity canonical pathway IL-6 Signaling, z score / Ingenuity canonical pathway NF-κB Signaling, z score / Ingenuity canonical pathway Role of NFAT in Cardiac Hypertrophy, z score / Ingenuity canonical pathway PPARα/RXRα Activation, z score: *: ambiguous effect
Conditions: TBI + 5 mg/kg LMW-DS, 7 days after TBI
Experimental: The experimental protocol used in this study was approved by the Ethical Committee of the Catholic University of Rome, according to international standards and guidelines for animal care. Male Wistar rats of 300-350 g body weight were fed with standard laboratory diet and water ad libitum in a controlled environment. As the anesthetic mixture, the animals received 35 mg/kg b.w. ketamine and 0.25 mg/kg body weight midazolam by i.p. injection. Severe traumatic brain injury (sTBI) was induced by dropping a 450 g weight from 2 m height on to the rat head that had been protected by a metal disk previously fixed on the skull, according to the “weight drop” impact acceleration model (Marmarou et al., A new model of diffuse brain injury in rats. Part I: Pathophysiology and biomechanics. J Neurosurg. 1994; 80: 291-300). […] At the end of each period of treatment, rats were anesthetized again and then immediately sacrificed.
LMW-DS (Tikomed AB) was provided at a stock concentration of 20 mg/ml and was kept in a temperature-monitored refrigerator at 4° C. LMW-DS aliquots were diluted to the appropriate dosing concentration in sterile saline prior to delivery of a single subcutaneous injection.
Three doses of LMW-DS were administered subcutaneously 30 minutes post-TBI. The animals were sacrificed at 2 days post-TBI. The animals were divided into the following subgroups:
Three doses of LMW-DS were administered subcutaneously 30 minutes post-TBI. The animals were sacrificed at 7 days post-TBI. The animals were divided into the following subgroups:
An in vivo craniectomy was performed on all animals during anesthesia. After carefully removing the rat's skull, the brain was exposed and removed with a surgical spatula and quickly dropped in RNALater and preserved at 4° C. for further processing.
RNA extraction and array processing was carried out by SourceBioscience. The arrays used were the Agilent Rat expression arrays.
Statistical analysis was carried out using the Metaboanalyst software package. Gene expression changes of 10% with a p<0.05 were regarded as significant.
Pathway analysis of the differentially regulated genes was carried out using the Ingenuity pathway analysis package. The analysis was performed with special reference to pathways and molecular processes and diseases associated with neurodegenerative disease, including dementia, Alzheimer's disease, ALS, TBI and stroke, and with scarring and fibrosis, including glaucoma and normal pressure hydrocephalus (NPH) after subarachnoid haemorrhage.

Substance: low molecular weight dextran sulfate [LMW-DS]
- z score: Cellular homeostasis: 1.615
- z score: Chemotaxis: 1.873
- z score: Concentration of lipid: −0.575
- z score: Development of body axis: 1.213
- z score: Development of body trunk: 1.09
- z score: Development of carcinoma: 0.152
- z score: Development of connective tissue cells: 1.638
- z score: Development of epithelial tissue: 0.262
- z score: Development of genitourinary system: −0.336
- z score: Development of head: 1.213
- z score: Development of neurons: 1.106
- z score: Development of sensory organ: 0.669
- z score: Development of vasculature: 0.295
- z score: Differentiation of bone: 1.012
- z score: Differentiation of bone cells: 0.85
- z score: Differentiation of connective tissue cells: 0.769
- z score: Digestive organ tumor: −1.348
- z score: Digestive system cancer: −1.792
- z score: Endocrine gland tumor: −0.067
- z score: Expression of RNA: 1.797
- z score: Extracranial solid tumor: 0.369
- z score: Failure of kidney: 0.555
- z score: Formation of eye: 1.664
- z score: Gastrointestinal tumor: −1.215
- z score: Genital tumor: 0.305
- z score: Genitourinary carcinoma: 1.131
- z score: Genitourinary tumor: 1.388
- z score: Glucose metabolism disorder: 0.439
- z score: Growth of connective tissue: −0.324
- z score: Growth of epithelial tissue: −1.58
- z score: Growth of tumor: 2.295
- z score: Head and neck cancer: −1.154
- z score: Head and neck tumor: −0.355
- z score: Hematologic cancer: −1.725
- z score: Hematologic cancer of cells: −1.486
- z score: Hematopoietic neoplasm: −1.002
- z score: Intestinal tumor: −1.09
- z score: Invasion of cells: 1.32
- z score: Leukocyte migration: 3.062
- z score: Lymphatic system tumor: −0.956
- z score: Lymphocytic cancer: −1.486
- z score: Lymphocytic neoplasm: −1.486
- z score: Lymphoid cancer: −0.956
- z score: Lymphoma: −1.224
- z score: Lymphoproliferative disorder: −1.727
- z score: Lymphoreticular neoplasm: −1.224
- z score: Malignant genitourinary solid tumor: 0.346
- z score: Malignant solid tumor: 0.423
- z score: Microtubule dynamics: 1.82
- z score: Migration of cells: 2.659
- z score: Migration of endothelial cells: 2.16
- z score: Morbidity or mortality: −2.848
- z score: Necrosis: 0.228
- z score: Necrosis of epithelial tissue: 1.674
- z score: Neoplasia of cells: 0.474
- z score: Neoplasia of leukocytes: −1.486
- z score: Non-hematologic malignant neoplasm: −0.243
- z score: Non-hematological solid tumor: 0.021
- z score: Non-melanoma solid tumor: 0.01
- z score: Obesity: 0.493
- z score: Organismal death: −2.885
- z score: Organization of cytoskeleton: 2.174
- z score: Pelvic tumor: 0.445
- z score: Peripheral vascular disease: 1
- z score: Proliferation of connective tissue cells: −0.747
- z score: Proliferation of epithelial cells: −1.196
- z score: Quantity of cells: 0.634
- z score: Quantity of connective tissue: 0.609
- z score: Renal impairment: 0.555
- z score: Secretion of molecule: 1.386
- z score: Sensory system development: −0.307
- z score: Size of body: 0.748
- z score: Skin lesion: −0.111
- z score: Skin tumor: −2.396
- z score: Solid tumor: 1.29
- z score: Synthesis of lipid: 1.937
- z score: Transcription: 1.317
- z score: Transcription of RNA: 1.221
- z score: Transport of molecule: 1.854
- z score: Tumorigenesis of tissue: −0.832
- z score: Vasculogenesis: 0.507
- Ingenuity canonical pathway Acute Phase Response Signaling, z score (relative to control): 1.89
- Ingenuity canonical pathway Adrenomedullin signaling pathway, z score (relative to control): −0.632
- Ingenuity canonical pathway Cardiac Hypertrophy Signaling, z score (relative to control): 1
- Ingenuity canonical pathway Colorectal Cancer Metastasis Signaling, z score (relative to control): −0.378
- Ingenuity canonical pathway Dendritic Cell Maturation, z score (relative to control): 1.897
- Ingenuity canonical pathway ERK5 Signaling, z score (relative to control): −0.447
- Ingenuity canonical pathway ERK/MAPK Signaling, z score (relative to control): 1
- Ingenuity canonical pathway Endothelin-1 Signaling, z score (relative to control): 1.633
- Ingenuity canonical pathway Fcγ Receptor-mediated Phagocytosis in Macrophages and Monocytes, z score (relative to control): 2.236
- Ingenuity canonical pathway GNRH Signaling, z score (relative to control): 2
- Ingenuity canonical pathway HMGB1 Signaling, z score (relative to control): 1.134
- Ingenuity canonical pathway IL-1 Signaling, z score (relative to control): 1
- Ingenuity canonical pathway IL-6 Signaling, z score (relative to control): 1
- Ingenuity canonical pathway IL-8 Signaling, z score (relative to control): 2.646
- Ingenuity canonical pathway ILK Signaling, z score (relative to control): 1.89
- Ingenuity canonical pathway Leukocyte Extravasation Signaling, z score (relative to control): 1.342
- Ingenuity canonical pathway NF-κB Signaling, z score (relative to control): *
- Ingenuity canonical pathway Neuroinflammation Signaling Pathway, z score (relative to control): 1.941
- Ingenuity canonical pathway Opioid Signaling Pathway, z score (relative to control): *
- Ingenuity canonical pathway Osteoarthritis Pathway, z score (relative to control): −1
- Ingenuity canonical pathway PI3K Signaling in B Lymphocytes, z score (relative to control): 1.89
- Ingenuity canonical pathway PKCθ Signaling in T Lymphocytes, z score (relative to control): 2
- Ingenuity canonical pathway PPAR Signaling, z score (relative to control): −1.342
